Test results taken from patent US20260091026A1, “METHODS OF TREATING INFLAMMATORY DISEASES” (INTERLINE THERAPEUTICS, INC., priority 2023, published 2026).

Columns and labels:
RIPK2 (KD)/XIAP (BIR2) = target: T1, RIPK2 (KD)/XIAP (BIR2) (Homo sapiens, UniProt O43353); assay: RIPK2-XIAP binding competition PPI assay (TR-FRET); conditions: for Emax: 50 nM of GSK583 = -100% activity, read-out: PPI Amax; for IC50: GST-RIPK2 / His-XIAP (BIR2)-avi, 120 min at 23° C.
T1 construct: made in house; host or cells: baculovirus-infected Sf9 cells
T1 sequence (O43353 1-310): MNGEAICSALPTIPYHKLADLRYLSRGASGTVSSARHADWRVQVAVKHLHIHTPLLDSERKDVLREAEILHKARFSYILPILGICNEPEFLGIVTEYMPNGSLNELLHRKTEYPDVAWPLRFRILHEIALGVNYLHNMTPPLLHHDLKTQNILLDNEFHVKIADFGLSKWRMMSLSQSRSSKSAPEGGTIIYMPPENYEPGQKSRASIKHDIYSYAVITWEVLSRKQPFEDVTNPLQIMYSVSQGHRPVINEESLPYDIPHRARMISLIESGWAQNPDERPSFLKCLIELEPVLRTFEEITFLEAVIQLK
In short: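 After 2 h at 23 °C, complex formation was read as the 665/520 nm emission ratio (337 nm excitation), scaled between uninhibited reaction and 50 nM GSK583. The mix held 1 nM human RIPK2 kinase fragment-GST, 25 nM His-tagged XIAP BIR2 and Tb/XL665 antibodies in pH 7.5 Tris buffer containing vanadate and glycerophosphate.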

[1] = system: THP1-Dual cells, NF-κB pathway (SEAP); assay: THP-1 Dual cell SEAP assay (L18-MDP stimulated); assay type: cell-based; conditions: Homo sapiens, 10 ng/mL L18-MDP, 20-24 h, SEAP readout, read-out: IFNγ THP1 IC50
In short: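 IC50 values come from non-linear fits of % inhibition of SEAP, measured as QUANTI-Blue optical density (620-655 nm, 2 h) in media-blanked supernatants. These were taken from THP1-Dual cells treated with compound for 30 min before overnight exposure to 10 ng/mL L18-MDP final at 37 °C.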

SMILES	Emax (RIPK2 (KD)/XIAP (BIR2)) [%]	IC50 (RIPK2 (KD)/XIAP (BIR2)) [nM]	IC50 [1] [nM]
COc1cc2ncc(-c3cc(C(=O)N[C@H](C)c4ncc(F)cn4)n(C)n3)n2cc1S(=O)(=O)C(C)(C)C [Example 104, (R)-3-(6-(tert-butylsulfonyl)-7-methoxyimidazo[1,2-a]pyridin-3-yl)-N-(1-(5-fluoropyrimidin-2-yl)ethyl)-1-methyl-1H-pyrazole-5-carboxamide]	≥ 80	> 1000	> 2500
COCCn1nc(-c2cnc3cc(OC)c(S(=O)(=O)C(C)(C)C)cn23)cc1C(=O)N[C@H](C)c1ccccn1 [Example 105, (R)-3-(6-(tert-butylsulfonyl)-7-methoxyimidazo[1,2-a]pyridin-3-yl)-1-(2-methoxyethyl)-N-(1-(pyridin-2-yl)ethyl)-1H-pyrazole-5-carboxamide]	≥ 80	10 to 100	500 to 2500
COc1cc2ncc(-c3cc(C(=O)N[C@H](C)c4ccccn4)n(CC(F)(F)CO)n3)n2cc1S(=O)(=O)C(C)(C)C [Example 106, (R)-3-(6-(tert-butylsulfonyl)-7-methoxyimidazo[1,2-a]pyridin-3-yl)-1-(2,2-difluoro-3-hydroxypropyl)-N-(1-(pyridin-2-yl)ethyl)-1H-pyrazole-5-carboxamide]	≥ 80	10 to 100	100 to 500
COc1cc2ncc(-c3cc(C(=O)N[C@H](C)c4ncccn4)n(CC(F)(F)CO)n3)n2cc1S(=O)(=O)C(C)(C)C [Example 107, (R)-3-(6-(tert-butylsulfonyl)-7-methoxyimidazo[1,2-a]pyridin-3-yl)-1-(2,2-difluoro-3-hydroxypropyl)-N-(1-(pyrimidin-2-yl)ethyl)-1H-pyrazole-5-carboxamide]	≥ 80	10 to 100	500 to 2500
C[C@@H](NC(=O)c1cc(-c2cnc3cc(OCCO)c(S(=O)(=O)C(C)(C)C)cn23)nn1C)c1ncccn1 [Example 108, (R)-3-(6-(tert-butylsulfonyl)-7-(2-hydroxyethoxy)imidazo[1,2-a]pyridin-3-yl)-1-methyl-N-(1-(pyrimidin-2-yl)ethyl)-1H-pyrazole-5-carboxamide]	≥ 80	10 to 100	100 to 500
C[C@@H](NC(=O)c1cc(-c2cnc3cc(OCCO)c(S(=O)(=O)C(C)(C)C)cn23)nn1C)c1ccccn1 [Example 109, (R)-3-(6-(tert-butylsulfonyl)-7-(2-hydroxyethoxy)imidazo[1,2-a]pyridin-3-yl)-1-methyl-N-(1-(pyridin-2-yl)ethyl)-1H-pyrazole-5-carboxamide]	≥ 80	10 to 100	100 to 500
C[C@@H](NC(=O)c1cc(-c2cnc3cc(OCCO)c(S(=O)(=O)C(C)(C)C)cn23)nn1C)c1ncccc1F [Example 110, (R)-3-(6-(tert-butylsulfonyl)-7-(2-hydroxyethoxy)imidazo[1,2-a]pyridin-3-yl)-N-(1-(3-fluoropyridin-2-yl)ethyl)-1-methyl-1H-pyrazole-5-carboxamide]	≥ 80	10 to 100	< 100
C[C@@H](NC(=O)c1cc(-c2cnc3cc(OCCO)c(S(=O)(=O)C(C)(C)C)cn23)nn1C)c1ncccc1Cl [Example 111, (R)-3-(6-(tert-butylsulfonyl)-7-(2-hydroxyethoxy)imidazo[1,2-a]pyridin-3-yl)-N-(1-(3-chloropyridin-2-yl)ethyl)-1-methyl-1H-pyrazole-5-carboxamide]	≥ 80	10 to 100	100 to 500
C[C@H](NC(=O)c1cc(-c2cnc3cc(OCCO)c(S(=O)(=O)C(C)(C)C)cn23)nn1C)c1ncccc1Cl [Example 112, (S)-3-(6-(tert-butylsulfonyl)-7-(2-hydroxyethoxy)imidazo[1,2-a]pyridin-3-yl)-N-(1-(3-chloropyridin-2-yl)ethyl)-1-methyl-1H-pyrazole-5-carboxamide]	55 to 80	> 1000	> 2500
COc1cn2ncc(-c3cc(C(=O)N[C@H](C)c4ccccn4)n(C)n3)c2cc1S(=O)(=O)C(C)(C)C [Example 113, (R)-3-(5-(tert-butylsulfonyl)-6-methoxypyrazolo[1,5-a]pyridin-3-yl)-1-methyl-N-(1-(pyridin-2-yl)ethyl)-1H-pyrazole-5-carboxamide]	≥ 80	100 to 1000	500 to 2500
COc1cn2ncc(-c3cc(C(=O)N[C@H](C)c4ncccc4F)n(C)n3)c2cc1S(=O)(=O)C(C)(C)C [Example 114, (R)-3-(5-(tert-butylsulfonyl)-6-methoxypyrazolo[1,5-a]pyridin-3-yl)-N-(1-(3-fluoropyridin-2-yl)ethyl)-1-methyl-1H-pyrazole-5-carboxamide]	≥ 80	10 to 100	100 to 500
C[C@@H](NC(=O)c1cc(-c2cnn3cc(OCCO)c(S(=O)(=O)C(C)(C)C)cc23)nn1C)c1ccccn1 [Example 115, (R)-3-(5-(tert-butylsulfonyl)-6-(2-hydroxyethoxy)pyrazolo[1,5-a]pyridin-3-yl)-1-methyl-N-(1-(pyridin-2-yl)ethyl)-1H-pyrazole-5-carboxamide]	≥ 80	10 to 100	500 to 2500
C[C@@H](NC(=O)c1cc(-c2cnn3cc(OCCO)c(S(=O)(=O)C(C)(C)C)cc23)nn1C)c1ncccc1F [Example 116, (R)-3-(5-(tert-butylsulfonyl)-6-(2-hydroxyethoxy)pyrazolo[1,5-a]pyridin-3-yl)-N-(1-(3-fluoropyridin-2-yl)ethyl)-1-methyl-1H-pyrazole-5-carboxamide]	≥ 80	10 to 100	100 to 500
CCn1nc(-c2cnn3cc(OCCO)c(S(=O)(=O)C(C)(C)C)cc23)cc1C(=O)N[C@H](C)c1ncccn1 [Example 117, (R)-3-(5-(tert-butylsulfonyl)-6-(2-hydroxyethoxy)pyrazolo[1,5-a]pyridin-3-yl)-1-ethyl-N-(1-(pyrimidin-2-yl)ethyl)-1H-pyrazole-5-carboxamide]	≥ 80	10 to 100	< 100
CCn1nc(-c2cnc3cc(OCCO)c(S(=O)(=O)C(C)(C)C)cn23)cc1C(=O)N[C@H](C)c1ncccc1F [Example 118, (R)-3-(6-(tert-butylsulfonyl)-7-(2-hydroxyethoxy)imidazo[1,2-a]pyridin-3-yl)-1-ethyl-N-(1-(3-fluoropyridin-2-yl)ethyl)-1H-pyrazole-5-carboxamide]	≥ 80	< 10	< 100
CCn1nc(-c2cnc3cc(OCCO)c(S(=O)(=O)C(C)(C)C)cn23)cc1C(=O)N[C@H](C)c1ncccn1 [Example 119, (R)-3-(6-(tert-butylsulfonyl)-7-(2-hydroxyethoxy)imidazo[1,2-a]pyridin-3-yl)-1-ethyl-N-(1-(pyrimidin-2-yl)ethyl)-1H-pyrazole-5-carboxamide]	≥ 80	< 10	< 100
CCn1nc(-c2cnc3cc(OCCO)c(S(=O)(=O)C(C)(C)C)cn23)cc1C(=O)N[C@H](C)c1nccs1 [Example 120, (R)-3-(6-(tert-butylsulfonyl)-7-(2-hydroxyethoxy)imidazo[1,2-a]pyridin-3-yl)-1-ethyl-N-(1-(thiazol-2-yl)ethyl)-1H-pyrazole-5-carboxamide]	≥ 80	< 10	< 100
CCn1nc(-c2cnc3cc(OCCO)c(S(=O)(=O)C(C)(C)C)cn23)cc1C(=O)N[C@H](C)c1ccccn1 [Example 121, (R)-3-(6-(tert-butylsulfonyl)-7-(2-hydroxyethoxy)imidazo[1,2-a]pyridin-3-yl)-1-ethyl-N-(1-(pyridin-2-yl)ethyl)-1H-pyrazole-5-carboxamide]	≥ 80	< 10	< 100
CCn1nc(-c2cnc3cc(OCCO)c(S(=O)(=O)C(C)(C)C)cn23)cc1C(=O)N[C@H](C)c1ccn(C)n1 [Example 122, (R)-3-(6-(tert-butylsulfonyl)-7-(2-hydroxyethoxy)imidazo[1,2-a]pyridin-3-yl)-1-ethyl-N-(1-(1-methyl-1H-pyrazol-3-yl)ethyl)-1H-pyrazole-5-carboxamide]	≥ 80	10 to 100	< 100
CCn1nc(-c2cnc3cc(OCCO)c(S(=O)(=O)C(C)(C)C)cn23)cc1C(=O)N[C@@H](C)c1ccn(C)n1 [Example 123, (S)-3-(6-(tert-butylsulfonyl)-7-(2-hydroxyethoxy)imidazo[1,2-a]pyridin-3-yl)-1-ethyl-N-(1-(1-methyl-1H-pyrazol-3-yl)ethyl)-1H-pyrazole-5-carboxamide]	≥ 80	100 to 1000	> 2500
CCn1nc(-c2cnc3cc(OC)c(S(=O)(=O)C(C)(C)C)cn23)cc1C(=O)N[C@@H](C)c1ccn(C)n1 [Example 124, (S)-3-(6-(tert-butylsulfonyl)-7-methoxyimidazo[1,2-a]pyridin-3-yl)-1-ethyl-N-(1-(1-methyl-1H-pyrazol-3-yl)ethyl)-1H-pyrazole-5-carboxamide]	≥ 80	100 to 1000	> 2500
CCn1nc(-c2cnc3cc(OC)c(S(=O)(=O)C(C)(C)C)cn23)cc1C(=O)N[C@H](C)c1ccn(C)n1 [Example 125, (R)-3-(6-(tert-butylsulfonyl)-7-methoxyimidazo[1,2-a]pyridin-3-yl)-1-ethyl-N-(1-(1-methyl-1H-pyrazol-3-yl)ethyl)-1H-pyrazole-5-carboxamide]	≥ 80	10 to 100	< 100
